# Columns and labels:
# Bovine brain calmodulin = Bovine brain calmodulin (Bos taurus, UniProt P62157); test: Calmodulin assayed by activation of calmodulin-dependent cyclic nucleotide phosphodiesterase; type: biochemical; details: 122 μM
# Text: Bovine brain calmodulin was purified to homogeneity according to the method described by Sharma and Wang (1979), cited above, with the inclusion of phenyl-Sepharose affinity chromatography as described by Dedman and Kaetzel (1983) Methods Enzymol., 102:1-8. Calmodulin-deficient, calmodulin-dependent cyclic nucleotide phosphodiesterase from bovine brain was partially purified by the method described by Sharma et al. (1983) Methods Enzymol., 102:210-219, with the omission of the calmodulin-Sepharose affinity chromatography. Calmodulin was assayed by the activation of the bovine brain calmodulin-dependent cyclic, nucleotide phosphodiesterase as described by Leung et al. (1982) J. Biol. Chem., 259:2742-2747. Briefly, the phosphodiesterase reaction was coupled to the 5,'-nucleotidase reaction. The amount of phosphate released was measured by the malachite green method of Carter and Karl (1982) J. Biochem. Biophys. Methods, 7:7-13. One unit of calmodulin is defined as that amount giving 50% of the maximal activation of the phosphodiesterase.
# [1] = test system: rabbits fed an atherogenic diet; details: cited from earlier work
# [2] = test system: New Zealand white rabbits; test: Rabbit feeding experiments: aortas stained with Sudan IV for atherosclerotic lesions; type: in vivo
# Method: (§1) For the first feeding experiment, eighteen young adult New Zealand white rabbits (2.7+/-0,3 kg) were divided into […]. The first group (3 animals) was killed immediately and tissue samples obtained for comparison with the experimental animals. The controls (3 rabbits) were fed 160 g/day Purina Pelleted Rabbit Chow (Ralston Purina Co., St. Louis, MO.); the other three groups (4 rabbits each) received the same diet to which was added 1.6 g recrystallized cholesterol, or 50 mg of the cholesterol hydroperoxide-enriched material, or both 1.6 g recrystallized cholesterol and 50 mg of cholesterol hydroperoxides. The sterols were added to the pelleted diet in ethyl ether and the ether was allowed to evaporate under a stream of nitrogen. The animals were fed this diet for 61 days, during which time one animal on the cholesterol diet died of unknown causes. The weight gained by the animals during the experiment, as percent of initial weight, was: controls, 38%; cholesterol, 33%; hydroperoxides, 34%; and cholesterol plus hydroperoxides, 18%. At the end of the feeding period the animals were killed and blood and tissue samples obtained for further investigation.
# A second feeding experiment was conducted in the same way as the first with the following changes. Twenty-six rabbits (2.8 +/-0.05 kg) were obtained; two were killed before the feeding experiment began and tissue samples obtained as before. The remaining animals were divided into 6 groups of 4. Four groups received the same diets as in the first experiment. The other two groups received 160/g day Purina Pelleted Rabbit Chow to which was added 50 mg/day of the material produced by reduction of the hydroperoxide-enriched material with NaI; or 1.6 g/day recrystallized cholesterol plus 50 mg/day of the reduced material. […]
# The aortas were sectioned longitudinally and stained with Sudan IV (Holman et al., 1958Lat. Invest., 7:42-47). […] J. Biochem. and Physiol., 37:911-917 and free and esterified cholesterol concentrations in plasma, lipoproteins, and tissue were determined by the method of Sale (1984) Anal. Biochem., 142:347-350.
# [3] = Rabbit feeding experiment: cholesterol and cholesterol esters in liver and heart; type: in vivo; details: first feeding experiment, +/- S.D.
# Method: as §1
# (§2) The aortas were sectioned longitudinally and stained with Sudan IV (Holman et al., 1958Lat. Invest., 7:42-47). Serum lipoproteins were separated as described by Havel et al. (1955) J. Clin. Invest., 34:1345-1353. Lipids were extracted by the method of Bligh and Dyer (1959) Can. J. Biochem. and Physiol., 37:911-917 and free and esterified cholesterol concentrations in plasma, lipoproteins, and tissue were determined by the method of Sale (1984) Anal. Biochem., 142:347-350.
# [4] = Rabbit feeding experiments: blood plasma cholesterol and cholesterol esters; type: in vivo; details: +/- S.D.
# Method: as §1
# A second feeding experiment was conducted in the same way as the first with the following changes. Twenty-six rabbits (2.8 +/-0.05 kg) were obtained; two were killed before the feeding experiment began and tissue samples obtained as before. The remaining animals were divided into 6 groups of 4. Four groups received the same diets as in the first experiment. The other two groups received 160/g day Purina Pelleted Rabbit Chow to which was added 50 mg/day of the material produced by reduction of the hydroperoxide-enriched material with NaI; or 1.6 g/day recrystallized cholesterol plus 50 mg/day of the reduced material. The animals received all six diets for 56 days, during which time one control animal and one receiving the hydroperoxide preparation died during removal of blood samples. The weight gain, as percent of initial weight, was: controls, 45%; cholesterol, 31%; hydroperoxides, 29%; cholesterol plus hydroperoxides, 31%; reduced hydroperoxides 35%, and cholesterol plus reduced hydroperoxides, 30%.
# as §2
smiles,measurement,setting,value
CC(C)CCC[C@@H](C)[C@H]1CC[C@H]2[C@@H]3CCC4=CC(=O)CC[C@]4(C)[C@H]3CC[C@]12C [4-cholesten-3-one],effect in the phosphodiesterase assay,Bovine brain calmodulin,without effect
CC(C)CCC[C@@H](C)[C@H]1CC[C@H]2[C@@H]3C(=O)C=C4C[C@@H](O)CC[C@]4(C)[C@H]3CC[C@]12C [5-cholesten-3β-ol-7-one],effect in the phosphodiesterase assay,Bovine brain calmodulin,without effect
"CC(C)CCC[C@@H](C)[C@H]1CC[C@H]2[C@@H]3C[C@@H]4O[C@@]45C[C@@H](O)CC[C@]5(C)[C@H]3CC[C@]12C [Cholesterol-5α,6α-epoxide, cholesterol-5α,6α-epoxide]",effect in the phosphodiesterase assay,Bovine brain calmodulin,without effect
CN(C)CCCN1c2ccccc2Sc2ccc(Cl)cc21 [chlorpromazine],development of atherosclerotic lesions,[1],reduced the development of such lesions
same,effect on blood cholesterol,[1],without lowering of blood cholesterol
CC(C)CCC[C@@H](C)[C@H]1CC[C@H]2[C@@H]3CC=C4C[C@@H](O)CC[C@]4(C)[C@H]3CC[C@]12C [cholesterol],atherosclerotic lesions in aorta (Sudan IV),"[2]; first feeding experiment, 61 days, added to chow: 1.6 g/day cholesterol and/or 50 mg/day hydroperoxide material",heavily infiltrated with fatty material
same,atherosclerotic lesions in aorta (Sudan IV),"[2]; first feeding experiment, 61 days, added to chow: 1.6 g/day cholesterol and/or 50 mg/day hydroperoxide material, listed as Cholesterol",extensive atheroma formation
same,atherosclerotic lesions in aorta (Sudan IV),"[2]; second feeding experiment, 56 days, added to chow: 1.6 g/day cholesterol and/or 50 mg/day test material",less than in the first experiment
same,"cholesterol and esters, HEART",[3],158 +/- 74 mg/100 g wet tissue
same,"cholesterol and esters, LIVER",[3],4960 +/- 1416 mg/100 g wet tissue
same,"cholesterol, HEART",[3],160 +/- 24 mg/100 g wet tissue
same,"cholesterol, LIVER",[3],1217 +/- 615 mg/100 g wet tissue
same,Final blood plasma Cholesterol,[4]; first feeding experiment,446 ± 163 mg/dL
same,Final blood plasma Cholesterol Esters,[4]; first feeding experiment,1507 ± 361 mg/dL
same,Final blood plasma Cholesterol,[4]; second feeding experiment,828 ± 459 mg/dL
same,Final blood plasma Cholesterol Esters,[4]; second feeding experiment,1520 ± 820 mg/dL

# Reference: patent US4789670A, “Method and compositions for suppression of atherogenesis utilizing cholesterol hydroperoxides” (priority 1987, dated 1988)
